{"source": "patent US7674899B2", "about": "“Dimeric azacyclic compounds and their use” (Neurosearch A/S, priority 2004, dated 2010)", "target": "T1, α7-subtype of nicotinic receptors (Rattus norvegicus, UniProt Q05941)", "T1 construct": "Cerebral cortices from male Wistar rats (150-250 g) are homogenised; from tissue; host or cells: rat cerebral cortex membrane homogenate", "T1 sequence (Q05941 23-502)": "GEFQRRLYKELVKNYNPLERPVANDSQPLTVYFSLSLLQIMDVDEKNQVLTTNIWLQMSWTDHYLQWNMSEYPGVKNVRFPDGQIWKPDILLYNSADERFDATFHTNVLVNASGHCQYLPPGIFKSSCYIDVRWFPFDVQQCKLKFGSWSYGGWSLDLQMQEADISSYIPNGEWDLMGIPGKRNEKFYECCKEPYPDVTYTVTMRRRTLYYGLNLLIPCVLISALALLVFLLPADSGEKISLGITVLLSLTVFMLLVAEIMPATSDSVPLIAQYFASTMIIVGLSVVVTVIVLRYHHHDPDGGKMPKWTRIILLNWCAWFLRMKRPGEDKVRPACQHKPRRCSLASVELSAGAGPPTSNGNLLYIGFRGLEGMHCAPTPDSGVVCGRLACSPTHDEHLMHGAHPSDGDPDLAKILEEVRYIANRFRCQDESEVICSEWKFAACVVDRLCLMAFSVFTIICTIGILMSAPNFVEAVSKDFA", "assay": "In vitro inhibition of 3H-α-bungarotoxine binding in rat brain", "conditions": "rat cerebral cortex homogenate; 2 nM 3H-α-bungarotoxine; 2 hours at 37° C.", "note": "Counter-ions that a name gives are not always drawn."}
{"compound": "c1nc(OC2CN3CCC2CC3)sc1-c1cnc(OC2CN3CCC2CC3)s1", "note": "(racemic) [Compound A1, 2,2′-Bis-((±)-1-aza-bicyclo[2.2.2]oct-3-yloxy)-[5,5′]-bithiazolyl fumaric acid salt]", "values": [{"measurement": "IC50", "value": 200, "unit": "nM"}]}
